Data as given in patent publication US9228998B2, “Drug monitoring methods using the promyelocytic leukemia protein as a redox sensor” (Institut National de la Sante et de la Recherche Medicale …, priority 2010, dated 2016).

Key:
PML = biological target: T1, PML (Homo sapiens, UniProt P29590); experiment: Western-blot analysis under non-reducing conditions of PML-transfected CHO cells (disulfide-linked PML complexes); assay type: cell-based; set-up: amounts of covalent PML multimers: concentration or dose not given beside the values; details: for amounts of covalent PML multimers: short exposure, CHO cells transiently overexpressing PML; for covalent PML homodimers: transiently PML- or PML3KR-transfected cells, non-reducing conditions; for formation of covalent multimers: pretreatment, transiently PML-transfected CHO cells
T1 construct: expressed in transfected cells; host or cells: CHO (transient)
T1 sequence (P29590 1-641 isoform P29590-9): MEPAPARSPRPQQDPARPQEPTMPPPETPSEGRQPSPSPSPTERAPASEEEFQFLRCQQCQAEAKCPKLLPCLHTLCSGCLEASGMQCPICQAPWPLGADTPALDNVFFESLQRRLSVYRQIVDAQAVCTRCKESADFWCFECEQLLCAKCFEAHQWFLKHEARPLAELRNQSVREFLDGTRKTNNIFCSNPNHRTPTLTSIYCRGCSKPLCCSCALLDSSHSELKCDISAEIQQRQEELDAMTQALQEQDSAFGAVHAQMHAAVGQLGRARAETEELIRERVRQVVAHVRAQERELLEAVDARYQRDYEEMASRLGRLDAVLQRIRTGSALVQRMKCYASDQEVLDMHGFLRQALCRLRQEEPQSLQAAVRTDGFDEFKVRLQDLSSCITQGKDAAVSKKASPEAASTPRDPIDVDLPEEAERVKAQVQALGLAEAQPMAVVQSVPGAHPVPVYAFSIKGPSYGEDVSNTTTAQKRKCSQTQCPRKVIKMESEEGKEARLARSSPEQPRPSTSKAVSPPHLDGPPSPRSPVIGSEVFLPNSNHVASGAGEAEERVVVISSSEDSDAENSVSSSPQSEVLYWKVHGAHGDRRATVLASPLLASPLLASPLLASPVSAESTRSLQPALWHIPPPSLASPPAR
Procedure: (§1) HeLa, MRC5, CHO, COS, SaOS and Pml−/− MEF cells were cultured in 10% Fetal calf serum DMEM medium (Gibco). Plasmid transfections were performed in CHO or COS with Effectene transfection reagent (Qiagen). Stable CHO cell lines, expressing the PML isoform, or its mutants, were obtained by cotransfection of pSG5-PMLΔSIM, pSG5-3K/RΔSIM, pSG5-C212A or pSG5-B1 with the Dsp-Hygro vector; selected for 2 weeks in […] hygromycin-containing media. Clones were selected for similar PML expression levels. PML WT, PML C60A, PMLΔCC and PML 3K/R stable expressing cell lines were described previously^25. MRC5 or SaOS were grown on coverslides and treated with 400 U/ml IFNg for 48 h and IFNa for 24 h to induce PML expression. Primary mouse APL blasts were obtained from serially transplanted APLs^16 and then cultured in RPMI medium, 10% FCS supplemented with IL-3, IL-6 and SCF (Gibco). Infection of immortalized pml−/− MEFs or primary progenitors was performed with retroviruses produced by CaCl2 transfection of Plat-E cells by with the MSCV-PML/RARA retroviral vector^16. Pml−/− or +/+ MEF cells were similarly transduced with MSCV-PML or PML mutants.
(§2) As2O3 (Fluka) treatments were performed at 1 mM or 10 mM for 1 h. H2O2 from SIGMA-Aldrich was performed for 30 min at 0.1, 1 or 10 mM as indicated, Phenylarsine oxide (PAO) was purchased from SIGMA, solubilized at 50 mg/ml in DMSO and used at 0.1 mM, 1 mM or 10 mM for 1 h, CdCl2 from Flucka, was used at a final concentration of 10 mM. Cells were treated with 10 mM Lactacystin (Calbiochem) overnight, and with 50 mg/ml ready-made cycloheximide (SIGMA) as indicated. Pre-treatments with 100 mM N-ethyl maleimide (NEM) (SIGMA) for 30 min were carried out before adding As2O3 or H2O2. TC-FlAsH (FlAs) was from Molecular Probes; cells growing on coverslides were treated with 1 mM for 1 h, washed in PBS before PFA fixation. Dithiarsolan-biotin conjugate (arsenic-biotin) was kindly given by Kenneth L. Kirk^53, solubilized in DMSO to a 5 mM stock solution, and used on cell culture at 10 mM for 1 h.
Cell lysates were resolved on 7%, 3 to 10% gradient or 12% SDS-PAGE gels and transferred onto nitrocellulose membranes. Detection was performed with the chemi-luminescent substrate SuperSignal WestPico (Pearce), using previously described home made mouse and chicken anti-hPML antibodies^15,25, the PML isoform-specific antibodies were characterized previously^29. For analysis under non-reducing conditions, b-Mercapto-Ethanol or DTT was omitted from the standard Laemmli buffer. In situ nuclear matrix was prepared as for immunofluorescence, but finally resuspended in Laemmli buffer. Purifications of 6M Guanidium-HCl denatured (His×6)-tagged proteins were done with Ni-NTA-agarose from Qiagen, as previously^25. The purification of the arsenic-bound proteins were performed from As-biotin treated CHO-PML or transiently pSG5-PML wt or C212A transfected COS cells. Cells were lysed in 2% SDS-containing RIPA with Protease Inhibitor Cocktail (PIC) (Roche Applied Science), denatured at 95° C. for 5 min to release nuclear matrix-associated PML. Streptavidin-agarose (Molecular Probes) was added to the […] lysates for 30 min to 1 h, washed three times in RIPA and arsenic bound proteins were eluted in Laemmli buffer.
Intermolecular disulfide bonds were previously implicated in stabilization of the nuclear matrix. […] We then compared total and nuclear matrix extracts from transiently transfected CHO cells under non-reducing conditions and observed that the matrix fraction was dramatically enriched in covalent PML dimers.

endogenous murine PML = biological target: T2, endogenous murine PML (Mus musculus, UniProt Q60953); experiment: NB formation by endogenous murine PML in bone marrow cells of treated mice; assay type: in vivo; details: normal bone marrow cells of treated mice
T2 construct: from tissue; host or cells: mouse bone marrow cells (cytospins, FVB/NICO mice)
T2 sequence (Q60953 1-885): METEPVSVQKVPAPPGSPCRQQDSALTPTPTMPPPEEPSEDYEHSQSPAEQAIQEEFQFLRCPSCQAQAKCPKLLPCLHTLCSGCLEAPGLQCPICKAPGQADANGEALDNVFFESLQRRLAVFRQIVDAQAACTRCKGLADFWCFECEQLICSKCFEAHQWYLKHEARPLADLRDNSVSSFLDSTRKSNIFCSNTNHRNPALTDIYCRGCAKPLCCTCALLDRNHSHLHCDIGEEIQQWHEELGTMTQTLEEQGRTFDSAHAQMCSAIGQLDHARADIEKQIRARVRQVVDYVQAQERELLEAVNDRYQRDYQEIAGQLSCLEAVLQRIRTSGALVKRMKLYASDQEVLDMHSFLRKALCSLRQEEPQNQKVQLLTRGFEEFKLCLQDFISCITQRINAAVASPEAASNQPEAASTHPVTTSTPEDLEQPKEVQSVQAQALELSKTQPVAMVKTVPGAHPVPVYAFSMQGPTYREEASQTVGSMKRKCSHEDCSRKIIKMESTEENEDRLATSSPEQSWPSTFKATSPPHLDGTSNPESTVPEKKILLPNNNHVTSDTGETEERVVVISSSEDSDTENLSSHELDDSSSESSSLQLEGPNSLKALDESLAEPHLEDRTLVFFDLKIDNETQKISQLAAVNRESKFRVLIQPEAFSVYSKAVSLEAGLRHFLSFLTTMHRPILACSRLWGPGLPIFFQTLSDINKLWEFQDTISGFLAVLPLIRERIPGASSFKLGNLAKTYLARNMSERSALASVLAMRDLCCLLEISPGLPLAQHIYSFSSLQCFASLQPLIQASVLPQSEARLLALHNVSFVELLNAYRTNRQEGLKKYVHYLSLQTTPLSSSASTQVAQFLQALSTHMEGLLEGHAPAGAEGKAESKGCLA
Procedure: (§3) Mouse experiments were repeated 3 times. Animal handling was done according to the guidelines of institutional animal care committees, using protocols approved by “Comité Régional d'Ethique Expérimentation Animale (CREEA) no 4”. 25 mg/kg Paraquat (SIGMA) was daily intraperitoneally injected in PML/RARA and PML/RARA-S77A leukemic mice^17 (to be fully described elsewhere). In vivo imaging was performed using a Xenogen IVIS100 facility to ensure similar tumor mass pre-treatment. Mice were treated with 150 mg/kg for 1 h before bone marrow cytospins (from FVB/NICO) and […] tumor cryosections (NUDE/SWISS) immuno-histochemistry; CHO-PML xenografts were performed as before^42.
(§4) Disulfide bonds are oxidant-sensitive. […] As ROS status is profoundly altered in cell culture, we examined NBs in vivo in basal conditions and after acute induction of ROS. […] Thus, oxidation-triggered disulfide bonds in PML regulate its partitioning between the nucleoplasm and nuclear matrix associated NBs.
(§5) We next investigated whether oxidants enhance disulfide-bound PML multimerization. […] We thus examined whether paraquat, an acute ROS inducer, would regulate NB formation in vivo, a setting where ROS levels are likely more controlled.

PML NBs [1] = biological target: T3, PML NBs (Homo sapiens, UniProt P29590); experiment: NB formation in CHO-PML xenografts in nude mice; assay type: in vivo; details: treatment of nude mice bearing CHO-PML xenografts
T3 construct: expressed in transfected cells
T3 sequence (P29590 1-641 isoform P29590-9): T1 sequence (P29590 1-641 isoform P29590-9)
Procedure: as §3, §4, §5

PML NBs [2] = biological target: T3, PML NBs; experiment: PML NBs in cultured cells (CHO-PML), immunofluorescence; assay type: cell-based
Procedure: as §1, §2
Immunofluorescence, electronic microscopy and antibodies were previously described^15. In situ nuclear matrix preparations were prepared as described^1. Confocal analyses were performed on a LSM510 Meta laser microscope (Carl Zeiss MicroImaging, Inc.) with a plan apochromat 63X N.A.1.4 oil immersion objective and increased resolution images were obtained with deconvolution software (Autodeblur, Image Quant) using blind iterative algorithms.

SMILES	amounts of covalent PML multimers (PML)	covalent PML homodimers (PML)	NB formation by endogenous murine PML (endogenous murine PML)	NB formation in CHO-PML xenografts (PML NBs [1])	NBs in cultured cells with strong oxidants (PML NBs [2])	formation of covalent multimers (PML)	other results
O=[As]O[As]=O (centres unmarked) [As2O3]	massively increased	dramatic increase	Enhanced NB formation	dramatic increase in NB formation			
[Cl][Cd][Cl] [CdCl2]	massively increased				disrupt NBs		
OO [H2O2]	massively increased	dramatic increase			disrupt NBs		
CC(=O)N[C@@H](CS)C(=O)O [NAC, N-acetyl cysteine]						abrogated	basal NB formation (PML NBs [2]; CHO-PML cells cultured for 10 days with the ROS scavenger): lost basal NB formation; NBs after wash-out (PML NBs [2]; CHO-PML cells, 3 day wash-out after 10 days culture): NBs were restored; abundance of the high molecular weight PML forms (PML; pretreatment of CHO cells prior to PML transfection): dramatic decrease
CCN1C(=O)C=CC1=O [NEM, N-ethyl maleimide]						abrogated	basal PML NBs (PML NBs [2]; untreated cells / CHO-PML cells, 1 hr treatment): disrupted basal PML NBs; As2O3 or H2O2-enhanced homodimer formation (PML; thiol alkylator added with As2O3 or H2O2): abrogated
C[n+]1ccc(-c2cc[n+](C)cc2)cc1 [Paraquat]			Identical results	dramatic increase in NBs			NB formation by endogenous murine PML (endogenous murine PML; listed as paraquat): Enhanced NB formation; NB formation in CHO-PML xenografts (PML NBs [1]; listed as paraquat): dramatic increase in NB formation
